In patent publication US11617735B2, “Purified forms of rofecoxib, methods of manufacture and use” (Tremeau Pharmaceuticals, Inc., priority 2018, dated 2023):
Read-outs that look alike come from different tables or passages of the source.

Assays:
[1] = Stability of isolated crude rofecoxib towards hydrogen peroxide; type: physicochemical; settings: crude unwashed, stored at room temperature for 17 days (CHG P059-104)
Experimental: Several verifications were performed to confirm the feasibility of hydrogen peroxide removal: • No corrosion of Stainless steel 316L in contact with crude rofecoxib (RXB-201) mother liquors (enriched in excess hydrogen peroxide) after 10 days at 20° C. […] Crude washings seem to be efficient enough to remove peroxide traces in cake washings. • Stability of isolated crude rofecoxib (RXB-201) towards hydrogen peroxide is very satisfying. Crude unwashed rofecoxib (RXB-201) was stored at room temperature for 17 days. No evolution of UHPLC profile was observed (CHG P059-104).

[2] = Stability of rofecoxib drug substance at 40° C./75% RH; type: physicochemical; settings: Lot 16P3140F851
Experimental: (§1) Stability data for rofecoxib drug substance (Lot 16P3140F851) are provided in Tables 6A-B. If an individual impurity is ≥0.05% area, the result is reported to the nearest 0.01%. If an individual impurity is <0.02% (LOD), the result is reported as “not detected” (ND). If an individual impurity is <0.05% area but ≥0.02% area, the result is recorded as <0.05% area.

[3] = Solubility in solvents by UHPLC assay; type: physicochemical
Source text: The tool called “Early phase solvent selection: solubility prediction” was used. This tool allows to predict the solubility of material in a large scope of solvents, knowing the solubility in some of them. The solubility can be also predicted in function of temperature, and for solvent combinations. The solubility prediction is based on similar structures moieties between solvents. Therefore, the measurement of solubility in 16 different solvents allowed for the estimate of solubility in up to 106 solvents. […] Solubilities were obtained by UHPLC assay. Among these 106 solvents, 27 seemed interesting as solvent or antisolvent. DMF. NMP and DMSO are the solvents in which rofecoxib (RXB-201) is the most soluble (>100 g/L at 30° C.). Nevertheless, ICH Q3C, DMF and NMP were less suitable than DMSO which remains the best option. Thus, no changes were implemented regarding the solvent.
Since the main purpose of the recrystallization is to decrease the rate of one single identified impurity, 4-[4-(methylsulfinyl)phenyl]-3-phenyl-2(5H)-furanone solubilities were measured in a couple of probable antisolvents identified in Table 9. A reference of 4-[4-(methylsulfinyl)phenyl]-3-phenyl-2(5H)-furanone (CHG P059-038) was synthesized at lab on 8 g for this study, with 98% purity, as per International Patent Application No. WO/2005/120584, which is incorporated herein in its entirety. Table 10 below reports the solubility of 4-[4-(methylsulfinyl)phenyl]-3-phenyl-2(5H)-furanone in various antisolvent candidates. It is noteworthy that 4-[4-(methylsulfinyl)phenyl]-3-phenyl-2(5H)-furanone is very soluble in acetic acid. […] Alcohols can alternatively be employed as antisolvent.

[4] = test system: Chinese hamster lung cells; settings: all concentrations tested, with and without S-9; cited from earlier work
[5] = test system: Salmonella typhimurium (TA98, TA100, TA1535, TA97a) and E. coli (WP2, WP2uvrA, WP2 uvrA pKM101); settings: with and without S9, up to 6000 μg/plate; cited from earlier work
[6] = RXB-Hydroxy formation from rofecoxib in DMSO with Na2SO3 under air (UHPLC); type: physicochemical; settings: 5.5V DMSO
Experimental: Trials were performed to check the effect of both temperature and sodium sulfite on the 4-[4-(methylsulphonyl)phenyl]-3-phenyl-5-hydroxyfuran-2-one rate. Pure rofecoxib (RXB-201) (F851) was solubilized in 5.5V DMSO. on which Na2SO3 was added. Three amounts of Na2SO3 were tested: • 0%: rofecoxib (RXB-201) post filtration • 0.5%: ashes result obtained on pilot batch (crude rofecoxib (RXB-201) F801) • 1.5%: ashes result obtained on APG P052-110 batch
Samples were subjected to 2 different temperatures under air atmosphere: • 40° C.: current heating temperature for polishing filtration • 60° C.: possible future temperature for polishing filtration if DMSO volumes are reduced for better productivity.

rats = settings: dose levels up to 8 mg/kg; cited from earlier work
[7] = Stability of rofecoxib drug substance at 25° C./60% RH; type: physicochemical; settings: Lot 16P3140F851
Experimental: as §1

CHO cells = settings: 25 to 125 μM with S-9 or 25 to 100 μM without S-9; cited from earlier work

In the case of `CS(=O)(=O)c1ccc(C2=C(c3ccccc3)C(=O)OC2)cc1` [Rofecoxib, 4-[4-(methylsulfonyl)phenyl]-3-phenyl-2(5H)-furanone], the “Evolution of UHPLC profile” value [1] is reported as “No evolution”, the Appearance ([2]; 1 Month) is reported as “Off-white” and the “Assay by HPLC” value ([2]; 1 Month) is reported as 99.6 w/w. For the same compound, the “Impurities by HPLC: RRT ~ 0.5” value ([2]; 1 Month) was <0.05 % area, the “Impurities by HPLC: RXB-furanone” value ([2]; 1 Month) was 0.08 % area and the “Impurities by HPLC: Total Impurities” value ([2]; 1 Month) was 0.11 % area. For the same compound, the “Water Content by Karl Fischer” value ([2]; 1 Month) was 0.07%, the Appearance ([2]; 3 Month) was “White” and the “Assay by HPLC” value ([2]; 3 Month) was 100.5 w/w. For the same compound, the “Impurities by HPLC: RRT ~ 0.5” value ([2]; 3 Month) was <0.05 % area, the “Impurities by HPLC: RXB-furanone” value ([2]; 3 Month) was 0.08 % area and the “Impurities by HPLC: Total Impurities” value ([2]; 3 Month) was 0.12 % area. The “Water Content by Karl Fischer” value ([2]; 3 Month) was 0.09%, the Appearance ([2]; Initial) was “Off-white” and the “Assay by HPLC” value ([2]; Initial) was 99.8 w/w. The “Impurities by HPLC: RRT ~ 0.5” value ([2]; Initial) was <0.05 % area, the “Impurities by HPLC: RXB-furanone” value ([2]; Initial) was 0.08 % area and the “Impurities by HPLC: Total Impurities” value ([2]; Initial) was 0.11 % area. The “Polymorphic form by XRPD” value ([2]; Initial) was “Form A”, the “Water Content by Karl Fischer” value ([2]; Initial) was 0.12% and the solubility ([3]; DMF, 30 °C) was 133 mg/mL. The solubility ([3]; DMF, 30 °C, organic solvent or mixture, DMF, 30 °C, read-out: Solubility) was > 100 mg/mL, the solubility ([3]; DMSO, 20 °C, organic solvent or mixture, DMSO, 20 °C, read-out: Solubility) was 93 mg/mL and the solubility ([3]; DMSO, 30 °C) was 107 mg/mL. The solubility ([3]; DMSO, 30 °C, organic solvent or mixture, DMSO, 30 °C, read-out: Solubility) was > 100 mg/mL, the solubility ([3]; DMSO, 40 °C, organic solvent or mixture, DMSO, 40 °C, read-out: Solubility) was 133 mg/mL and the solubility ([3]; DMSO, 50 °C, organic solvent or mixture, DMSO, 50 °C, read-out: Solubility) was 181 mg/mL. For the same compound, the solubility ([3]; DMSO, 60 °C, organic solvent or mixture, DMSO, 60 °C, read-out: Solubility) was 181 mg/mL, the solubility ([3]; NMP, 30 °C, organic solvent or mixture, NMP, 30 °C, read-out: Solubility) was > 100 mg/mL and the solubility ([3]; acetic acid, 30 °C, organic solvent or mixture, Acetic acid, 30 °C, read-out: Solubility) was 5 mg/mL. The solubility ([3]; acetone, 30 °C, organic solvent or mixture, Acetone, 30 °C, read-out: Solubility) was 28 mg/mL, the solubility ([3]; acetonitrile, 30 °C, organic solvent or mixture, Acetonitrile, 30 °C, read-out: Solubility) was 41 mg/mL and the solubility ([3]; anisole, 30 °C, organic solvent or mixture, Anisole, 30 °C, read-out: Solubility) was 22 mg/mL. It also gave a solubility ([3]; chlorobenzene, 30 °C, organic solvent or mixture, Chlorobenzene, 30 °C, read-out: Solubility) of 2.3 mg/mL, a solubility ([3]; dichloromethane, 30 °C, organic solvent or mixture, Dichloromethane, 30 °C, read-out: Solubility) of 45 mg/mL and a solubility ([3]; ethyl acetate, 30 °C, organic solvent or mixture, Ethyl acetate, 30 °C, read-out: Solubility) of 4.7 mg/mL. The solubility ([3]; methanol, 30 °C, organic solvent or mixture, Methanol, 30 °C, read-out: Solubility) was 1.8 mg/mL, the solubility ([3]; n-butanol, 30 °C, organic solvent or mixture, n-butanol, 30 °C, read-out: Solubility) was 0.2 mg/mL and the solubility ([3]; n-heptane, 30 °C, organic solvent or mixture, n-heptane, 30 °C, read-out: Solubility) was < 0.1 mg/mL. The solubility ([3]; toluene, 30 °C, organic solvent or mixture, Toluene, 30 °C, read-out: Solubility) was 1.2 mg/mL, the solubility ([3]; water, 30 °C, water, 30 °C, read-out: Solubility) was < 0.1 mg/mL and the “Solubility in water (descriptive)” value ([3]; water, insoluble regarding US pharmacopeia) was “very poorly soluble”. The “Mutations in Chinese hamster lung cells” value [4] was “negative”, the Mutagenicity [5] was “negative” and the “RXB-Hydroxy (UPLC)” value ([6]; 0% Na2SO3 (residue on ignition), IPC1 (3 h), 40° C.) was 0.08 % a/a. For the same compound, the “RXB-Hydroxy (UPLC)” value ([6]; 0% Na2SO3 (residue on ignition), IPC1 (3 h), 60° C.) was 0.16 % a/a, the “RXB-Hydroxy (UPLC)” value ([6]; 0% Na2SO3 (residue on ignition), IPC2 (6 h), 40° C.) was 0.14 % a/a and the “RXB-Hydroxy (UPLC)” value ([6]; 0% Na2SO3 (residue on ignition), IPC2 (6 h), 60° C.) was 0.17 % a/a. The “RXB-Hydroxy (UPLC)” value ([6]; 0.5% Na2SO3 (residue on ignition), IPC1 (3 h), 40° C.) was 0.30 % a/a, the “RXB-Hydroxy (UPLC)” value ([6]; 0.5% Na2SO3 (residue on ignition), IPC1 (3 h), 60° C.) was 0.35 % a/a and the “RXB-Hydroxy (UPLC)” value ([6]; 0.5% Na2SO3 (residue on ignition), IPC2 (6 h), 40° C.) was 0.45 % a/a. For the same compound, the “RXB-Hydroxy (UPLC)” value ([6]; 0.5% Na2SO3 (residue on ignition), IPC2 (6 h), 60° C.) was 0.52 % a/a, the “RXB-Hydroxy (UPLC)” value ([6]; 1.5% Na2SO3 (residue on ignition), IPC1 (3 h), 40° C.) was 0.38 % a/a and the “RXB-Hydroxy (UPLC)” value ([6]; 1.5% Na2SO3 (residue on ignition), IPC1 (3 h), 60° C.) was 0.67 % a/a. The “RXB-Hydroxy (UPLC)” value ([6]; 1.5% Na2SO3 (residue on ignition), IPC2 (6 h), 40° C.) was 0.60 % a/a, the “RXB-Hydroxy (UPLC)” value ([6]; 1.5% Na2SO3 (residue on ignition), IPC2 (6 h), 60° C.) was 0.73 % a/a and the Carcinogenicity (rats) was “not carcinogenic”. For the same compound, the Appearance ([7]; 3 Month) was “White”, the “Assay by HPLC” value ([7]; 3 Month) was 100.4 % w/w and the “Impurities by HPLC: RRT ~ 0.5” value ([7]; 3 Month) was <0.05 % area. The “Impurities by HPLC: RXB-furanone” value ([7]; 3 Month) was 0.08 % area, the “Impurities by HPLC: Total Impurities” value ([7]; 3 Month) was 0.11 % area and the “Water Content by Karl Fischer” value ([7]; 3 Month) was 0.08%. For the same compound, the Appearance ([7]; Initial) was “Off-white”, the “Assay by HPLC” value ([7]; Initial) was 99.8 % w/w and the “Impurities by HPLC: RRT ~ 0.5” value ([7]; Initial) was <0.05 % area. For the same compound, the “Impurities by HPLC: RXB-furanone” value ([7]; Initial) was 0.08 % area, the “Impurities by HPLC: Total Impurities” value ([7]; Initial) was 0.11 % area and the “Polymorphic form by XRPD” value ([7]; Initial) was “Form A”. For the same compound, the “Water Content by Karl Fischer” value ([7]; Initial) was 0.12% and the “Percent of aberrant cells” value (CHO cells) was “no significant increases”.
